{"source": "patent US20250163104A1", "about": "“MACROCYCLIC IMMUNOMODULATORS” (priority 2021, published 2025)", "note": "Where a SMILES comes first, the peptide text is derived from it. Bridges are numbered along the chain shown (N, C = ends). [ ]: non-standard residue; d: D form. ξ: configuration not given here. Bip = N[C@@H](Cc1ccc(-c2ccccc2)cc1)C(=O)O; Cit = NC(=O)NCCC[C@H](N)C(=O)O; Ile(3ξ) = CCC(C)[C@H](N)C(=O)O; ξIle = CC[C@H](C)C(N)C(=O)O; Orn = NCCC[C@H](N)C(=O)O; Dab = NCC[C@H](N)C(=O)O; Dap = NC[C@H](N)C(=O)O"}
{"target": "T1, human PD-1 / PD-L1-Ig binding on Jurkat cell line over-expressing human PD-1 (Jurkat-PD-1) (Homo sapiens, UniProt Q15116)", "T1 construct": "expressed in transfected cells; host or cells: Jurkat", "T1 sequence (Q15116 25-288)": "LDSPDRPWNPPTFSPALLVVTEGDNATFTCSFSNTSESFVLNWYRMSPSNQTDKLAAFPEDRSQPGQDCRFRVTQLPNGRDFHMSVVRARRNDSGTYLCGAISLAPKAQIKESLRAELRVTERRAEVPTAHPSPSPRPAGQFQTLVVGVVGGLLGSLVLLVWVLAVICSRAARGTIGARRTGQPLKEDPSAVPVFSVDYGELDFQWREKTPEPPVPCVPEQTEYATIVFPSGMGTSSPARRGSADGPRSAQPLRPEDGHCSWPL", "experiment": "Jurkat-PD-1 Cell Binding High-Content Screening Assay (CBA)", "assay_type": "cell-based", "details": "Jurkat-PD-1 cells, PE-labeled PD-L1-Ig 20 nM final; read-out: Jurkat HPD1_PDL1 IC50", "outline": "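Compounds were preincubated with Jurkat-hPD-1 cells in DMEM plus 10% fetal calf serum for 2 h at 37° C. Phycoerythrin-labeled PD-L1-Ig (20 nM final) was then added for 1 hour. Cells were fixed in 4% paraformaldehyde with Hoechst 33342, and bound fluorescence was quantified by high-content imaging.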", "units": {"IC50": "nM"}}
{"smiles": "CC(C)C[C@@H]1NC(=O)[C@H](CCN)NC(=O)[C@@H](CC(C)C)NC(=O)[C@H](CCCCN)NC(=O)[C@H](C(C)C)NC(=O)[C@H](Cc2ccc(-c3ccccc3)cc2)NC(=O)[C@H](C(C)C)NC(=O)[C@H](Cc2c[nH]c3ccccc23)NC(=O)[C@H](CC(N)=O)NC(=O)[C@H](Cc2ccc(O)cc2)NC(=O)[C@H](CC(N)=O)NC(=O)CSC[C@@H](C(=O)NCC(N)=O)NC(=O)[C@H]([C@@H](C)O)NC(=O)[C@H](C(C)C)NC1=O", "note": "[Compound 1085] ({CH2CO}-NYNWV[Bip]VK[dL][Dab]LVTCG-NH2; thioether N-14)", "IC50": 22.3}
{"smiles": "CC(C)C[C@@H]1NC(=O)[C@H](CCN)NC(=O)[C@@H](CC(C)C)NC(=O)[C@H](CCN)NC(=O)[C@H](C(C)C)NC(=O)[C@H](Cc2ccc(-c3ccccc3)cc2)NC(=O)[C@H](C(C)C)NC(=O)[C@H](Cc2c[nH]c3ccccc23)NC(=O)[C@H](CC(N)=O)NC(=O)[C@H](Cc2ccc(O)cc2)NC(=O)[C@H](CC(N)=O)NC(=O)CSC[C@@H](C(=O)NCC(N)=O)NC(=O)[C@H]([C@@H](C)O)NC(=O)[C@H](C(C)C)NC1=O", "note": "[Compound 1086] ({CH2CO}-NYNWV[Bip]V[Dab][dL][Dab]LVTCG-NH2; thioether N-14)", "IC50": 20.5}
{"smiles": "CC(C)C[C@@H]1NC(=O)[C@H](CCN)NC(=O)[C@@H](CC(C)C)NC(=O)[C@H](CCCN)NC(=O)[C@H](C(C)C)NC(=O)[C@H](Cc2ccc(-c3ccccc3)cc2)NC(=O)[C@H](C(C)C)NC(=O)[C@H](Cc2c[nH]c3ccccc23)NC(=O)[C@H](CC(N)=O)NC(=O)[C@H](Cc2ccc(O)cc2)NC(=O)[C@H](CN)NC(=O)CSC[C@@H](C(=O)N[C@@H](C)C(N)=O)NC(=O)[C@H]([C@@H](C)O)NC(=O)[C@H](C(C)C)NC1=O", "note": "[Compound 1087] ({CH2CO}-[Dap]YNWV[Bip]V[Orn][dL][Dab]LVTCA-NH2; thioether N-14)", "IC50": 36.6}
{"smiles": "CC(C)C[C@@H]1NC(=O)[C@H](CCN)NC(=O)[C@@H](CC(C)C)NC(=O)[C@H](CCCN)NC(=O)[C@H](CCCNC(N)=O)NC(=O)[C@H](Cc2ccc(-c3ccccc3)cc2)NC(=O)[C@H](C(C)C)NC(=O)[C@H](Cc2c[nH]c3ccccc23)NC(=O)[C@H](CC(N)=O)NC(=O)[C@H](Cc2ccc(O)cc2)NC(=O)[C@H](CN)NC(=O)CSC[C@@H](C(=O)N[C@@H](C)C(N)=O)NC(=O)[C@H]([C@@H](C)O)NC(=O)[C@H](C(C)C)NC1=O", "note": "[Compound 1088] ({CH2CO}-[Dap]YNWV[Bip][Cit][Orn][dL][Dab]LVTCA-NH2; thioether N-14)", "IC50": 23.7}
{"smiles": "CC[C@H](C)C1NC(=O)[C@H](Cc2ccc(-c3ccccc3)cc2)NC(=O)[C@H](C(C)C)NC(=O)[C@H](Cc2c[nH]c3ccccc23)NC(=O)[C@H](CC(N)=O)NC(=O)[C@H](Cc2ccc(O)cc2)NC(=O)[C@H](CN)NC(=O)CSC[C@@H](C(=O)N[C@@H](C)C(N)=O)NC(=O)[C@H]([C@@H](C)O)NC(=O)[C@H](C(C)C)NC(=O)[C@H](CC(C)C)NC(=O)[C@H](CCN)NC(=O)[C@@H](CC(C)C)NC(=O)[C@H](CN)NC1=O", "note": "(stereo partly drawn) [Compound 1089] ({CH2CO}-[Dap]YNWV[Bip][ξIle][Dap][dL][Dab]LVTCA-NH2; thioether N-14)", "IC50": 26.7}
{"smiles": "CC[C@H](C)C1NC(=O)[C@H](Cc2ccc(-c3ccccc3)cc2)NC(=O)[C@H](C(C)C)NC(=O)[C@H](Cc2c[nH]c3ccccc23)NC(=O)[C@H](CC(N)=O)NC(=O)[C@H](Cc2ccc(O)cc2)NC(=O)[C@H](CN)NC(=O)CSC[C@@H](C(=O)N[C@@H](C)C(N)=O)NC(=O)[C@H]([C@@H](C)O)NC(=O)[C@H](C(C)C)NC(=O)[C@H](CC(C)C)NC(=O)[C@H](CCN)NC(=O)[C@@H](CC(C)C)NC(=O)[C@H](CCN)NC1=O", "note": "(stereo partly drawn) [Compound 1090] ({CH2CO}-[Dap]YNWV[Bip][ξIle][Dab][dL][Dab]LVTCA-NH2; thioether N-14)", "IC50": 28}
{"smiles": "CCC(C)[C@@H]1NC(=O)[C@H](Cc2ccc(-c3ccccc3)cc2)NC(=O)[C@H](C(C)C)NC(=O)[C@H](Cc2c[nH]c3ccccc23)NC(=O)[C@H](CC(N)=O)NC(=O)[C@H](Cc2ccc(O)cc2)NC(=O)[C@H](CN)NC(=O)CSC[C@@H](C(=O)N[C@@H](C)C(N)=O)NC(=O)[C@H]([C@@H](C)O)NC(=O)[C@H](C(C)C)NC(=O)[C@H](CC(C)C)NC(=O)[C@H](CCN)NC(=O)[C@@H](CC(C)C)NC(=O)[C@H](CCCCN)NC1=O", "note": "(stereo partly drawn) [Compound 1091] ({CH2CO}-[Dap]YNWV[Bip][Ile(3ξ)]K[dL][Dab]LVTCA-NH2; thioether N-14)", "IC50": 21.8}
{"smiles": "CC(C)C[C@@H]1NC(=O)[C@H](Cc2c[nH]c3ccccc23)NC(=O)[C@H](CC(=O)O)NC(=O)[C@H](Cc2ccc(O)cc2)NC(=O)[C@H](Cc2ccccc2)NC(=O)CSC[C@@H](C(=O)N[C@@H](C)C(N)=O)NC(=O)[C@H]([C@@H](C)O)NC(=O)[C@H](C(C)C)NC(=O)[C@H](CC(C)C)NC(=O)[C@H](CC(N)=O)NC(=O)[C@@H](C)NC(=O)[C@H](CCCN)NC(=O)[C@H](C(C)C)NC(=O)[C@H](Cc2ccc(-c3ccccc3)cc2)NC1=O", "note": "[Compound 1092] ({CH2CO}-FYDWL[Bip]V[Orn][dA]NLVTCA-NH2; thioether N-14)", "IC50": 229}
{"smiles": "CC(C)C[C@@H]1NC(=O)[C@H](Cc2c[nH]c3ccccc23)NC(=O)[C@H](CC(=O)O)NC(=O)[C@H](Cc2ccc(O)cc2)NC(=O)[C@H](Cc2ccccc2)NC(=O)CSC[C@@H](C(=O)NCC(N)=O)NC(=O)[C@H](CO)NC(=O)[C@H](C(C)C)NC(=O)[C@H](CC(C)C)NC(=O)[C@H](CC(N)=O)NC(=O)[C@@H](C)NC(=O)[C@H](CCCN)NC(=O)[C@H](C(C)C)NC(=O)[C@H](Cc2ccc(-c3ccccc3)cc2)NC1=O", "note": "[Compound 1093] ({CH2CO}-FYDWL[Bip]V[Orn][dA]NLVSCG-NH2; thioether N-14)", "IC50": 120}
{"smiles": "CC(C)C[C@@H]1NC(=O)[C@H](Cc2c[nH]c3ccccc23)NC(=O)[C@H](CC(=O)O)NC(=O)[C@H](Cc2ccc(O)cc2)NC(=O)[C@H](Cc2ccccc2)NC(=O)CSC[C@@H](C(=O)N[C@@H](C)C(N)=O)NC(=O)[C@H](CO)NC(=O)[C@H](C(C)C)NC(=O)[C@H](CC(C)C)NC(=O)[C@H](CCN)NC(=O)[C@@H](C)NC(=O)[C@H](CCCN)NC(=O)[C@H](C(C)C)NC(=O)[C@H](Cc2ccc(-c3ccccc3)cc2)NC1=O", "note": "[Compound 1095] ({CH2CO}-FYDWL[Bip]V[Orn][dA][Dab]LVSCA-NH2; thioether N-14)", "IC50": 146}
{"smiles": "CC(C)C[C@@H]1NC(=O)[C@H](Cc2c[nH]c3ccccc23)NC(=O)[C@H](CC(=O)O)NC(=O)[C@H](Cc2ccc(O)cc2)NC(=O)[C@H](Cc2ccccc2)NC(=O)CSC[C@@H](C(=O)NCC(N)=O)NC(=O)[C@H](CO)NC(=O)[C@H](C(C)C)NC(=O)[C@H](CC(C)C)NC(=O)[C@H](CCN)NC(=O)[C@@H](C)NC(=O)[C@H](CCCN)NC(=O)[C@H](C(C)C)NC(=O)[C@H](Cc2ccc(-c3ccccc3)cc2)NC1=O", "note": "[Compound 1096] ({CH2CO}-FYDWL[Bip]V[Orn][dA][Dab]LVSCG-NH2; thioether N-14)", "IC50": 68.8}
{"smiles": "CC(C)C[C@@H]1NC(=O)[C@H](Cc2c[nH]c3ccccc23)NC(=O)[C@H](CC(=O)O)NC(=O)[C@H](Cc2ccc(O)cc2)NC(=O)[C@H](Cc2ccccc2)NC(=O)CSC[C@@H](C(=O)N[C@@H](C)C(N)=O)NC(=O)[C@H]([C@@H](C)O)NC(=O)[C@H](C(C)C)NC(=O)[C@H](CC(C)C)NC(=O)[C@H](CCN)NC(=O)[C@@H](C)NC(=O)[C@H](CN)NC(=O)[C@H](C(C)C)NC(=O)[C@H](Cc2ccc(-c3ccccc3)cc2)NC1=O", "note": "[Compound 1097] ({CH2CO}-FYDWL[Bip]V[Dap][dA][Dab]LVTCA-NH2; thioether N-14)", "IC50": 132}
